In patent publication US20080125358A1, “Methods for Chk2 inhibitor patient selection” (UNIVERSITY OF MASSACHUSETTS MEDICAL SCHOOL, priority 2006, published 2008):

Tests used:
[1] = system: prostate carcinoma PC3 cells; assay: Survivin expression after DNA damage, Western blotting; assay type: cell-based, human; conditions: analyzed after 12 hours
Method: (§1) Tumor cell types were exposed to ionizing radiation at doses ranging between 5-10 Gray (Gy) using a ^137Cs source (Gammacell 40), or, alternatively, treated with adriamycin (0-100 nM, Sigma). Cells were harvested after 2-48 h, and analyzed by Western blotting. Antibodies were used having affinities for; i) survivin (1:1000, Novus Biologicals); ii) Chk2 (1:500; Upstate Biotechnology); iii) cytochrome c (1:100; BD Biosciences-Pharmingen); iv) COX-IV (1:500; BD Biosciences-Clontech); v) caspase-3 (1:1000, Cell Signaling Technology); vi) cleaved caspase-3 (1:1000, Cell Signaling Technology); vii) cyclin B1 (1:1000, GNS1, Santa Cruz Biotechnology, Inc.); viii) XIAP (1:1000; Transduction Laboratories); xi) β-actin (1:5000, clone AC-15, A5441; Sigma-Aldrich); and xii) Thr^68-phosphorylated Chk2 (Cell Signaling Technology).

[2] = system: HCT116 clones #102 and #202; assay: Xenograft tumor model, HCT116 clones conditionally expressing Chk2-DN; assay type: in vivo, mice
Method: All examples involving animals were approved by an Institutional Animal Care and Use Committee. […] Approximately 2.5×10^6 cells were injected into each hindlimb flank of 6-8 week old female immunocompromised CB17 SCID/beige mice (i.e., thereby generating 2 tumors/mouse). […] Tumor growth was monitored with a caliper according to the formula ½ [length (mm)]×[width (mm)]^2. At the end of the experiment, tumors were excised, and frozen sections from the various groups were stained with control IgG or a FITC-conjugated antibody to HA, and analyzed by fluorescence microscopy.

HCT116 cells [3] = assay: Colony formation assay in soft agar; assay type: cell-based; conditions: increasing doses of ionizing radiation
Method: Wild-type HCT116 cells were transduced with a replication deficient adenovirus encoding GFP, Chk2-DN, or Thr^34→Ala^34 survivin DN at an m.o.i. of 50. O'Connor et al., “A p34(cdc2) survival checkpoint in cancer” Cancer Cell 2:43-54 (2002). Twenty-four hours later, approximately 3×10^4 cells were treated with or without ionizing radiation, and suspended in 1.5 ml of DMEM plus 10% FBS and 0.35% bactoagar (BD) in 6-well culture plates containing 1.5 ml of 0.75% agarose in growth medium at the bottom layer. Plates were incubated at 37° C. in 5% CO2 for 2 weeks. Colonies were stained with 0.005% crystal violet (Sigma-Aldrich), and counted using a dissecting microscope under high-power field.

HCT116 cells [4] = assay: Caspase activity and cell death by multiparametric flow cytometry after DNA damage; assay type: cell-based; conditions: p53+/+ or p53-/- HCT116 cells, ionizing radiation
Method: For gene silencing by short interference RNA (siRNA), tumor cell types were transfected with control (VIII) or survivin-derived (S4) double stranded (ds) RNA oligonucleotides (50 nM) using oligofectamine (3 μl/well), as previously described. Beltrami et al., “Acute ablation of survivin uncovers p53-dependent mitotic checkpoint functions and control of mitochondrial apoptosis” J Biol Chem 279:2077-84 (2004). Alternatively, cells were transfected with control or SMART® pool siRNA oligonucleotides to Chk1 or Chk2 (Dharmacon) using oligofectamine. A replication-deficient adenovirus expressing Chk2-DN was constructed using the pAd-Easy® system, and used at a multiple of infection (m.o.i.) of 50.
Tumor cell types were treated with or without ionizing radiation, harvested after 24 h, and analyzed for changes in cell cycle distribution by propidium iodide staining and flow cytometry. Alternatively, cells were exposed to ionizing radiation, and analyzed after 24-48 h for propidium iodide staining (red channel) and active caspase-3 activity (CaspaTag®, Intergen®, green channel), by simultaneous multiparametric flow cytometry. Dohi et al., “Mitochondrial survivin inhibits apoptosis and promotes tumorigenesis” J Clin Invest 114:1117-1127 (2004).

MCF-7 cells = assay: Ionizing radiation-induced survivin expression, Western blotting; assay type: cell-based; conditions: MCF-7 cells transfected
Method: as §1
For gene silencing by short interference RNA (siRNA), tumor cell types were transfected with control (VIII) or survivin-derived (S4) double stranded (ds) RNA oligonucleotides (50 nM) using oligofectamine (3 μl/well), as previously described. Beltrami et al., “Acute ablation of survivin uncovers p53-dependent mitotic checkpoint functions and control of mitochondrial apoptosis” J Biol Chem 279:2077-84 (2004). Alternatively, cells were transfected with control or SMART® pool siRNA oligonucleotides to Chk1 or Chk2 (Dharmacon) using oligofectamine. […]

HCT116 clones #101, #102 = assay: Conditional induction of apoptosis, propidium iodide staining and flow cytometry; assay type: cell-based; conditions: doxycycline induction plus adriamycin, adriamycin-sensitive clones
Text: Breast adenocarcinoma MCF-7, colon adenocarcinoma HCT116, or prostate adenocarcinoma PC3 cells were obtained from the American Type Culture Collection (ATCC, Manassas Va.), and maintained in culture as recommended by the supplier. Wild-type, p53^−/−, or Chk2^−/− HCT116 cells were kindly provided by Dr. B. Vogelstein (Johns Hopkins University, Baltimore, Md.). The rat insulinoma cell line INS-1 stably transfected with mitochondrially-targeted survivin fused to GFP was created as previously described. Dohi et al., “Mitochondrial survivin inhibits apoptosis and promotes tumorigenesis” J Clin Invest 114:1117-1127 (2004). Wild-type HCT116 cells were stably transfected to conditionally express a kinase-dead Asp^347 Asn^347 Chk2 dominant-negative (DN) cDNA under the control of a tetracycline (tet)-regulated promoter (tet-on system, Clontech), as described previously. Grossman et al., “Inhibition of melanoma tumor growth in vivo by survivin targeting” Proc. Natl. Acad. Sci. U.S.A. 98:635-640 (2001). Conditional induction of Chk2-DN was monitored after addition of 2 μg/ml doxycycline (dox).
[…] Alternatively, cells were exposed to ionizing radiation, and analyzed after 24-48 h for propidium iodide staining (red channel) and active caspase-3 activity (CaspaTag®, Intergen®, green channel), by simultaneous multiparametric flow cytometry. […]

Chk2 = Chk2 (Homo sapiens, UniProt O96017); conditions: expressed and purified Chk2; cited from earlier work
Chain of Chk2 (O96017 whole entry): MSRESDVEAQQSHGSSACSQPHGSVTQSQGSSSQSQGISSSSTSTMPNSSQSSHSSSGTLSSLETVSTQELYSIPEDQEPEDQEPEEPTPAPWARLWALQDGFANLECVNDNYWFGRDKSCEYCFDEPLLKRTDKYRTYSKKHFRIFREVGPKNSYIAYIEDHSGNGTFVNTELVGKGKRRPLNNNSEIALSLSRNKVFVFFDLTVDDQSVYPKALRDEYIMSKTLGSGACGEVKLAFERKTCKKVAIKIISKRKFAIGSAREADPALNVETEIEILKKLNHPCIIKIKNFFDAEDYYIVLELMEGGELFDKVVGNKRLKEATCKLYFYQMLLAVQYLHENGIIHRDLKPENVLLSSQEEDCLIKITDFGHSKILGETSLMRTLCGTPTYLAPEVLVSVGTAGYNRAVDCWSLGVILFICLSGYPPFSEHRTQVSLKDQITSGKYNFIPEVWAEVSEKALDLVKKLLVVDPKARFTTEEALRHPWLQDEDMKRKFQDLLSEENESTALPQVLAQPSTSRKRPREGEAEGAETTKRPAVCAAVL

In the case of `COc1cccc2c1C(=O)c1c(O)c3c(c(O)c1C2=O)C[C@@](O)(C(=O)CO)C[C@@H]3O[C@H]1C[C@H](N)[C@H](O)[C@H](C)O1` [adriamycin], the survivin expression [1] is reported as “concentration-dependent increase in survivin”, the “effect on tumor growth” value ([2]; adriamycin-resistant clone #202, SCID/beige mice) is reported as “no effect” and the “inhibition of tumor growth” value ([2]; adriamycin-sensitive clone #102, SCID/beige mice, adriamycin 2 mg/kg) is reported as 50-60%.

In the case of “Thr^34→Ala^34 survivin-DN: dominant-negative survivin mutant delivered by replication deficient adenovirus”, the “colony formation in soft agar” value (HCT116 cells [3]) is reported as “nearly completely abolished”.

With “Chk2-DN: kinase-dead Asp347 to Asn347 Chk2 dominant-negative mutant, expressed by transfection, adenovirus or tet-on system” the “induction of caspase activity and cell death” value (HCT116 cells [4]) was “comparable induction of caspase activity and cell death”, the “ionizing radiation-induced survivin expression” value (MCF-7 cells) was “abolished the increase in survivin expression” and the “colony formation in soft agar” value (HCT116 cells [3]) was “nearly completely abolished”. The induction of apoptosis (HCT116 clones #101, #102) was 2- to 4 fold.

In the case of `CN[C@@H]1C[C@H]2O[C@@](C)([C@@H]1OC)n1c3ccccc3c3c4c(c5c6ccccc6n2c5c31)C(=O)NC4O` (stereo partly drawn) [UCN-01], the “confirmation of Chk2 potency” value (Chk2) is given as “could not be confirmed”.
